In US20050130982A1, “Oral therapeutic or preventative drugs for pollakiuria and urinary incontinence and oral sleep inducers, containing tropolone derivatives” (Nippon Kayaku Kabushiki Kaisha, priority 2002, published 2005):
Marks after values point to notes of the source that are not given here.

Experiments:
[1] = tested on: rhythmic bladder contraction; assay: Effect on the rhythmic bladder contraction of rats (inhibition of micturition reflex); assay type: in vivo, rat; conditions: for Inhibition rate of the rhythmic contraction frequency of the bladder (%): anesthetized SD-IGS male rats, 120 minutes following administration; for Inhibitory activity on the frequency of the rhythmic bladder contraction (in words): rats
Description: The inhibitory effect on the micturition reflex was evaluated by the effect on the rhythmic bladder contraction according to the method of […] et al. (Rinshyoseiri 5, 540-547 (1975)). SD-IGS strain male rats were anesthetized by intraperitonial administration of urethane (1 g/kg). After exposing the bladder of the animal through an incision of the abdomen, a small incision was made on the top of the bladder from where a rubber balloon was inserted. The balloon was attached to a polyethylene tube connecting to a three way stopcock. The rest two ways of the stopcock were connected to a syringe for infusing water to the balloon and a transducer to measure the internal pressure of the bladder. The test animal was left for a while and then water was infused into the balloon until rhythmic contraction started. The change in the internal pressure of the bladder was recorded continuously by a polygraph. Drugs were dissolved in de-ionized water and administered through a catheter inserted in the duodenum. The effect of the drug was expressed as the inhibition ratio of the frequency of the rhythmic contraction of the bladder obtained by following formula. Inhibition rate (%)=100-{the frequency of the rhythmic contraction during 120 minutes following the administration (converted to the frequency per unit time)/the frequency of the rhythmic contraction 20 minutes immediately before the administration (converted to the frequency per unit time)×100}

[2] = Measurement of bioavailability by oral administration in rats; assay type: in vivo, rat; conditions: for Bioavailability (%): 6.25 mg/kg oral vs intravenous, ratio of AUC
Description: The intravenous administration group and the oral administration group consisted of 3 rats each (6 week-old male SD-IGS strain (Japan Charles River Co.)).
Each test drug was dissolved in physiological saline or ultra-pure water and administered to the rats intravenously or orally at 6.25 mg/kg. The blood samples were collected periodically and the plasma were prepared by the routine procedures. After deproteinization, the concentration of each test drug was measured by the LC/ESI(+) SRM method (liquid chromatography/electrospray-ionization (+) selected reaction monitoring method) and the bioavailability was calculated as the ratio (percent) of AUC (area under the blood concentration-time curve) of the oral administration and AUC of the intra-venous administration.

[3] = molecular target: T1, human serotonin 1A receptor (Homo sapiens, UniProt P08908); assay: Serotonin 1A antagonism activity: affinity to the human serotonin 1A receptor in transfected CHO cells; assay type: binding; conditions: 10^−6 M test drug, 0.3 nM 8-OH-DPAT, CHO cells transfected with the human serotonin 1A receptor gene
T1 construct: expressed in transfected cells; host or cells: CHO cells
T1 sequence (P08908 1-422): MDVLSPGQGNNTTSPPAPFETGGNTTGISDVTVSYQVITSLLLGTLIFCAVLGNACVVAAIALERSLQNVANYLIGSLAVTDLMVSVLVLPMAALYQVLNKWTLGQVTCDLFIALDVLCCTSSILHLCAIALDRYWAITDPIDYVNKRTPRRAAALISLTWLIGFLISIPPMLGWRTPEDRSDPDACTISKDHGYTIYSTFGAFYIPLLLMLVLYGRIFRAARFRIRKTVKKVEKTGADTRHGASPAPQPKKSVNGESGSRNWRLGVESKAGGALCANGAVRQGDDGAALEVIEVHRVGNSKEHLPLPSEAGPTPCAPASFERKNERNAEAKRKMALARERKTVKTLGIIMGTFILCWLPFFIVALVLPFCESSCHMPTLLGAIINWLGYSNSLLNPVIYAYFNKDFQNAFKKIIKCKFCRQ
Description: The affinity of the test drug 1 to the human serotonin 1 A receptor was measured according to the method by Mulheron et al. (J. G. Mulheron et al., J. Biol. Chem., 269, 12954-12962 (1994)) by using the CHO cells transfected with the human serotonin 1A receptor gene.

[4] = tested on: sleep-inducing symptoms (drowsiness); assay: Observation of sleep-inducing symptoms in dogs after oral administration; assay type: in vivo, dog; conditions: male Beagle dogs
Description: Male dogs (Beagles) were orally administered with capsules filled with the test drug 1 and the symptoms were observed. The dosages were 3 mg/kg, 10 mg/kg, 30 mg/kg and 100 mg/kg.

[5] = Hygroscopic evaluation at 75% relative humidity; assay type: physicochemical; conditions: for Weight change (mg) in 75% relative humidity: 50 mg sample; for Increase in weight (hygroscopicity, in words): 75% relative humidity for 26 days
Description: Fifty mg of the each test sample was weighed exactly and placed in a closed container in which the relative humidity was kept at 75% and the bottom chamber was filled with saturated brine.

[6] = intra-duodenal administration of 6.25 mg/kg
[7] = oral capsule, group of more than 10 mg/kg

Row | SMILES | Inhibition rate of the rhythmic contraction frequency of the bladder (%) ([1]; 12.5 mg/kg intra-duodenal) | Inhibition rate of the rhythmic contraction frequency of the bladder (%) ([1]; 6.25 mg/kg intra-duodenal) | Inhibitory activity on the frequency of the rhythmic bladder contraction (in words) [1, 6] | Bioavailability (%) ([2]; hydrochloride, 6.25 mg/kg) | Weight change (mg) in 75% relative humidity ([5]; storage time 0 hours) [mg] | Weight change (mg) in 75% relative humidity ([5]; storage time 2 hours) [mg] | Weight change (mg) in 75% relative humidity ([5]; storage time 4 hours) [mg] | Weight change (mg) in 75% relative humidity ([5]; storage time 6 hours) [mg] | Weight change (mg) in 75% relative humidity ([5]; storage time 103 hours) [mg] | Weight change (mg) in 75% relative humidity ([5]; storage time 170 hours) [mg] | Weight change (mg) in 75% relative humidity ([5]; storage time 26 days) [mg] | Increase in weight (hygroscopicity, in words) [5] | also measured
1 | CC(C)c1ccc(CN2CCN(c3ccccc3)CC2)c(=O)c(OCc2ccccc2)c1.O=C(O)/C=C/C(=O)O [Control drug, 2-benzyloxy-4-isopropyl-7-[4-phenylpiperazinomethyl]-2,4,6-cycloheptatrien-1-one 1 fumarate, reference compound] | 4.81 +/− 4.09 (n = 6) % | – | – | – | – | – | – | – | – | – | – | – | Inhibitory activity on the frequency of the rhythmic bladder contraction (in words) ([1]; intra-duodenal, dose of 12.5 mg/kg): did not show significant activity; Bioavailability (%) [2]: 6%
2 | COc1cc(C(C)C)ccc(CN2CCN(c3ncccn3)CC2)c1=O.Cl [Test drug 1, 4-isopropyl-2-methoxy-7-[4-(2-pyrimidyl)piperazinomethyl]-2,4,6-cycloheptatrien-1-one 1 hydrochloride] | – | 48.89 +/− 5.43* % | marked inhibitory activity | 57 | – | – | – | – | – | – | – | – | Inhibition of the binding of 8-OH-DPAT to the human serotonin 1A receptor [3]: 77%; Inhibition rate of the rhythmic contraction frequency of the bladder (%) ([1]; 3.13 mg/kg intra-duodenal): 43.48%; Symptoms after oral administration ([4]; oral capsule, 3 mg/kg): no abnormal symptom was recognized; Drowsiness [4, 7]: drowsiness was observed; Time to drowsiness after administration [4, 7]: 20 to 30 min; Duration of drowsiness ([4]; oral, 30 mg/kg): 142 min; Duration of drowsiness ([4]; oral, 100 mg/kg): 318 min; Abnormal behavior other than drowsiness ([4]; oral, 3-100 mg/kg): No abnormal behavior other than drowsiness was observed; Drug concentration in the plasma ([4]; oral, 3-100 mg/kg): increased dose-dependently; Plasma concentration in rats administered orally ([2]; oral 6.25 mg/kg): ~10^−6 M
3 | CC(C)c1ccc(CN2CCN(c3ncccn3)CC2)c(=O)c(O)c1.Cl [Test drug 2, 2-hydroxy-4-isopropyl-7-[4-(2-pyrimidyl)piperazinomethyl]-2,4,6-cycloheptatrien-1-one 1 hydrochloride] | 59.08 +/− 3.18* (n = 3) % | 26.84 +/− 5.33 (n = 4) % | marked inhibitory activity | 31 | – | – | – | – | – | – | – | – | –
4 | COc1cc(C(C)C)ccc(CN2CCN(c3ncccn3)CC2)c1=O.O=C(O)C(O)C(O)C(=O)O.O=C(O)C(O)C(O)C(=O)O [Test sample 1, 4-isopropyl-2-methoxy-7-[4-(2-pyrimidyl)piperazinomethyl]-2,4,6-cycloheptatrien-1-one 2 DL-tartrate] | – | – | – | – | 0.0 | 0.2 | 0.2 | 0.1 | 0.1 | 0.1 | 0.1 | No substantial increase | –
5 | COc1cc(C(C)C)ccc(CN2CCN(c3ncccn3)CC2)c1=O.O=C(O)/C=C/C(=O)O [Test sample 2, 4-isopropyl-2-methoxy-7-[4-(2-pyrimidyl)piperazinomethyl]-2,4,6-cycloheptatrien-1-one 1 fumarate] | – | – | – | – | 0.0 | 0.3 | 0.4 | 0.1 | 0.1 | 0.2 | 0.2 | No substantial increase | –
